According to publication PMC7180948, “New Insights into 4-Anilinoquinazolines as Inhibitors of Cardiac Troponin I–Interacting Kinase (TNNi3K)” (Molecules, 2020):

Experiments:
Experiment in all cases: biochemical
Design in all cases: KINOMEscan competition binding panel (Eurofins DiscoverX), single concentration, % inhibition
Details in all cases: read-out: 7 at 1 µM % inhibition
CDC2L1 = target: T1, CDC2L1 (Homo sapiens, UniProt P21127)
T1 construct: gene CDK11B
Summary of the method: (§1)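 A single 1 µM concentration of each compound is screened across upwards of 400 human kinases using the KINOMEscan format.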

CDKL2 = CDKL2 (Homo sapiens, UniProt Q92772)
Summary of the method: as §1

CDKL3 = CDKL3 (Homo sapiens, UniProt Q8IVW4)
Summary of the method: as §1

CLK2 = CLK2 (Homo sapiens, UniProt P49760)
CLK2, sequence (P49760 whole entry): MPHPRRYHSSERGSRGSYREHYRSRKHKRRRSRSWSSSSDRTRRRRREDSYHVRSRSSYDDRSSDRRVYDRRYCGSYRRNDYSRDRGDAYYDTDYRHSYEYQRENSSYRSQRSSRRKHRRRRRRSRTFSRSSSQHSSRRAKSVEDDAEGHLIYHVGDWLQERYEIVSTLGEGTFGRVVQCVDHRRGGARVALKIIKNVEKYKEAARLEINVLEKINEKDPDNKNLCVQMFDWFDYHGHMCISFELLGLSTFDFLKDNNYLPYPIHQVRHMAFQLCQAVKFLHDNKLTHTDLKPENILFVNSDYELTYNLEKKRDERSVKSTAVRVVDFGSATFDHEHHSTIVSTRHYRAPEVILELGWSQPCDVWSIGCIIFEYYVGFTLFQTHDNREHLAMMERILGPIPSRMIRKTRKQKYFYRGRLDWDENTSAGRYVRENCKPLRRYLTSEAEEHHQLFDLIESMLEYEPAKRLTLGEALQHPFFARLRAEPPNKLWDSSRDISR
Summary of the method: as §1

CSNK1G3 = CSNK1G3 (Homo sapiens, UniProt Q9Y6M4)
Summary of the method: as §1

EPHA1 = EPHA1 (Homo sapiens, UniProt P21709)
Summary of the method: as §1

EPHB4 = EPHB4 (Homo sapiens, UniProt P54760)
Summary of the method: as §1

ERBB4 = ERBB4 (Homo sapiens, UniProt Q15303)
Summary of the method: as §1

FLT3(ITD) = FLT3(ITD) (Homo sapiens, UniProt P36888, ITD)
FLT3(ITD), sequence (P36888 564-993, change not shown): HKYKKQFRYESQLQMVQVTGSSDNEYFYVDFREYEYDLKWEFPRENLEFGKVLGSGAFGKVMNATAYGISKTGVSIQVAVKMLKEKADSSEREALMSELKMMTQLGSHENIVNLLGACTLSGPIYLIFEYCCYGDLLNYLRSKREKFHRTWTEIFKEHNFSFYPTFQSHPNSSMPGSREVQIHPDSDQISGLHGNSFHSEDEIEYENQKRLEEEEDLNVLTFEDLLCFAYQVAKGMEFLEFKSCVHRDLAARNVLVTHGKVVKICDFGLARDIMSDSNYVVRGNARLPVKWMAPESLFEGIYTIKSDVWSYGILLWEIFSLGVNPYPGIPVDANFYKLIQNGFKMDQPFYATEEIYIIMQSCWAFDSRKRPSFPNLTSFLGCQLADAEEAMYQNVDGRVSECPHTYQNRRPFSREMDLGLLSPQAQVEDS
Summary of the method: as §1

GCN2(Kin.Dom.2,S808G) = target: T2, GCN2(Kin.Dom.2,S808G) (Homo sapiens, UniProt Q9P2K8, S808G)
T2 construct: gene EIF2AK4; Kin.Dom.2
T2 sequence (Q9P2K8 whole entry S808G): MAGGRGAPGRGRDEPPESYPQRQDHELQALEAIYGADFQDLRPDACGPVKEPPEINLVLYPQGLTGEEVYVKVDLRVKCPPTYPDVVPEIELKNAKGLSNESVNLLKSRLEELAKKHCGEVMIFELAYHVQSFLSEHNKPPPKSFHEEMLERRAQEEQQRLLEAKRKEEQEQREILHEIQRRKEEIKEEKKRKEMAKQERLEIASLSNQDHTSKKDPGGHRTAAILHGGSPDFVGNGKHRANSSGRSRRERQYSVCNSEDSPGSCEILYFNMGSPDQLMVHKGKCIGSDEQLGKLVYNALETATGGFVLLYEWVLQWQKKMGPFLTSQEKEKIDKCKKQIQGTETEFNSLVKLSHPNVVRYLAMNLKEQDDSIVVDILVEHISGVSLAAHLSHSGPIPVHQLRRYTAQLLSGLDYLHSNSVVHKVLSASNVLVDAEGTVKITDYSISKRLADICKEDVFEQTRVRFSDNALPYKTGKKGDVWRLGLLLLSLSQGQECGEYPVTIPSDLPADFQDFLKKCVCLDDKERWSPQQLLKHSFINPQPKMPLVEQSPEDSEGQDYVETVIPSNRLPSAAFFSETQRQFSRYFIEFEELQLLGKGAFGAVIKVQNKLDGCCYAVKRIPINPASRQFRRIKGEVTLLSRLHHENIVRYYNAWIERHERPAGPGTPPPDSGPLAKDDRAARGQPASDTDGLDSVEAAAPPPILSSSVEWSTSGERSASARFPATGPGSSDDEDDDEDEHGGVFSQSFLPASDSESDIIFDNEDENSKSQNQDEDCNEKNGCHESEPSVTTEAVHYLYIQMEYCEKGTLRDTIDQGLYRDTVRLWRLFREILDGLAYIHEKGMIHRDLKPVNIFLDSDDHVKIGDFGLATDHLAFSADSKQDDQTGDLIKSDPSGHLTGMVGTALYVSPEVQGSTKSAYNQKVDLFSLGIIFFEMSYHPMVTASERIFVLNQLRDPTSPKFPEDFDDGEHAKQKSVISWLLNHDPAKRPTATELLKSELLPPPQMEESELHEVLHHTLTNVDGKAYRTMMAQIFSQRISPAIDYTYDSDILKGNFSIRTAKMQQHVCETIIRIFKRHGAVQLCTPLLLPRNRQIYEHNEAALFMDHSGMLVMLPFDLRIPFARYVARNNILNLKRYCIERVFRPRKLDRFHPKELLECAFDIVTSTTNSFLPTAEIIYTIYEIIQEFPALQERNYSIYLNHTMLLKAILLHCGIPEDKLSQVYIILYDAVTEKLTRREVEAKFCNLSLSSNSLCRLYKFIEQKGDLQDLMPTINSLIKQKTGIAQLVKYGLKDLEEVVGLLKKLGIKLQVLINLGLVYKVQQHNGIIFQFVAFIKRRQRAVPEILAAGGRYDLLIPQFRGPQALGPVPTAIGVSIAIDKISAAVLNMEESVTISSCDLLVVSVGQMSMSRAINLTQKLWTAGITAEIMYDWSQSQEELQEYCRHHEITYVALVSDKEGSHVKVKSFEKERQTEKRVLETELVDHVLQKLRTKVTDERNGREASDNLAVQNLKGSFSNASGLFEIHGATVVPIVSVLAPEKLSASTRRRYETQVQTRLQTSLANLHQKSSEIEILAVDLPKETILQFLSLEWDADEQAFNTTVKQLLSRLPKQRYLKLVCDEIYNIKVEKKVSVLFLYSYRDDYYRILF
Summary of the method: as §1

GSK3B = GSK3B (Homo sapiens, UniProt P49841)
Summary of the method: as §1

KIT(V559D) = KIT(V559D) (Homo sapiens, UniProt P10721, V559D)
Summary of the method: as §1

LRRK2 = LRRK2 (Homo sapiens, UniProt Q5S007)
LRRK2, sequence (Q5S007 whole entry): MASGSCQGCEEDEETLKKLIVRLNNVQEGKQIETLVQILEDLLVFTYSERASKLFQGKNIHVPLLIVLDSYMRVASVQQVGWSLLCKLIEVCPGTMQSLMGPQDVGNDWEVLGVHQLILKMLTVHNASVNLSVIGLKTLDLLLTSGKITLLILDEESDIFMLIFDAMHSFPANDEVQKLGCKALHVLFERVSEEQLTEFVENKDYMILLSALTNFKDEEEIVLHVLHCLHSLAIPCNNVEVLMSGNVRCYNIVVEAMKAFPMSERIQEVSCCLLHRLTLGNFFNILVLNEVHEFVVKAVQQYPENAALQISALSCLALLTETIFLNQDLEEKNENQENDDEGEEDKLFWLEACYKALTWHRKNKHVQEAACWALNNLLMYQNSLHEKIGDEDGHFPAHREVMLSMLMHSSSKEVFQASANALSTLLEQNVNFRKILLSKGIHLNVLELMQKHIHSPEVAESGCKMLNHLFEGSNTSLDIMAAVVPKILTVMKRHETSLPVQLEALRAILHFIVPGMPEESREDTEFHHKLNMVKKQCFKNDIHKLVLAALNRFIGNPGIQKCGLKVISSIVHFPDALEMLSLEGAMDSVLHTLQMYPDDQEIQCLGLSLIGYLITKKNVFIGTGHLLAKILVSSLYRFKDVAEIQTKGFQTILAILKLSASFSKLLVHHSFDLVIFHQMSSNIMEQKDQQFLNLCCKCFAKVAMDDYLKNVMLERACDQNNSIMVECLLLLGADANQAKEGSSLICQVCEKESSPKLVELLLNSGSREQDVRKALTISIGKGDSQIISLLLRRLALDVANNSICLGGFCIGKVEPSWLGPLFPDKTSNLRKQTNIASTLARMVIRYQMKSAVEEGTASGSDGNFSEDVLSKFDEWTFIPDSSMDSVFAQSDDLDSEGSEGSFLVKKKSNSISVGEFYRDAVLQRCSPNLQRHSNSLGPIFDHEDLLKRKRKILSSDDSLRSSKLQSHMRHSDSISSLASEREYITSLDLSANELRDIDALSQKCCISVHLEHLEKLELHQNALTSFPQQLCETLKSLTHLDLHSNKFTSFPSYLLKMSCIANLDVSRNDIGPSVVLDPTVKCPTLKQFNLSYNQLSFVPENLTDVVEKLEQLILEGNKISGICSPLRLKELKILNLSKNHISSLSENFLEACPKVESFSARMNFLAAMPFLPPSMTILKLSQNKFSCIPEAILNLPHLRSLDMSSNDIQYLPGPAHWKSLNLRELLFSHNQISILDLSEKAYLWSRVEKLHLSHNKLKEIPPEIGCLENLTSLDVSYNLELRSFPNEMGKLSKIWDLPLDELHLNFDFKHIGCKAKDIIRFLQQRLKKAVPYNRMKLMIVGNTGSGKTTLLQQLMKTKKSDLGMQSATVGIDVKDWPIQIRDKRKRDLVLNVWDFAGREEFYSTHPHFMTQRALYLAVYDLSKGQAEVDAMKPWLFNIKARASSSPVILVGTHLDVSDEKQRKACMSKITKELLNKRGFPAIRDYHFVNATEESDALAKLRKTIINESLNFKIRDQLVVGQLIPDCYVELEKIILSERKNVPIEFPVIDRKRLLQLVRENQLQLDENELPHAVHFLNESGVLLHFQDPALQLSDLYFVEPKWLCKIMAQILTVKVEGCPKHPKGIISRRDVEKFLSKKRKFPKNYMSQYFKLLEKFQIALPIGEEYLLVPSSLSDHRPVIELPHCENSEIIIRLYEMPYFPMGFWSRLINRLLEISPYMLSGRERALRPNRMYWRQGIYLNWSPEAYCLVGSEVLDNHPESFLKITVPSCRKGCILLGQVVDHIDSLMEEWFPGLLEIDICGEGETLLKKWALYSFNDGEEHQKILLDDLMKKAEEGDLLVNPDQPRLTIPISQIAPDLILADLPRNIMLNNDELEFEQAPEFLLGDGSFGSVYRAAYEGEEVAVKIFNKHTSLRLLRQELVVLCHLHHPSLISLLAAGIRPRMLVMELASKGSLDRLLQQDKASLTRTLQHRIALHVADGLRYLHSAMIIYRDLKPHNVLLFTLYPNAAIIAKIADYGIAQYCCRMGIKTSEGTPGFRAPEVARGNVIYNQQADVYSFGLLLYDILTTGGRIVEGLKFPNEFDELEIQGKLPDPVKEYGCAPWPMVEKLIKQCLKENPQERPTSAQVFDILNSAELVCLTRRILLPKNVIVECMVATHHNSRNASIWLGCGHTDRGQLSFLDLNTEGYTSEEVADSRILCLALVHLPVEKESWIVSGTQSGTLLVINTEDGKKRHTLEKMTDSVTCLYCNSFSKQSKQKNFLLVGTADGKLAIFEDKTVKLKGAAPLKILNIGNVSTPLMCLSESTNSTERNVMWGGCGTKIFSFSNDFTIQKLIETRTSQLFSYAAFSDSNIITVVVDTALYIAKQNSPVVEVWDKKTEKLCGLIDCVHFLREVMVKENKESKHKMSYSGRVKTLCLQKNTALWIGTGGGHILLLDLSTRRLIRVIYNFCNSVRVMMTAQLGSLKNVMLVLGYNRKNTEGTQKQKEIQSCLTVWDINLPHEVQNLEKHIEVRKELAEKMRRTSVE
Summary of the method: as §1

MAP3K4 = MAP3K4 (Homo sapiens, UniProt Q9Y6R4)
Summary of the method: as §1

MAP4K4 = MAP4K4 (Homo sapiens, UniProt O95819)
Summary of the method: as §1

MAST1 = MAST1 (Homo sapiens, UniProt Q9Y2H9)
Summary of the method: as §1

MLK1 = target: T3, MLK1 (Homo sapiens, UniProt P80192)
T3 construct: gene MAP3K9
Summary of the method: as §1

MST2 = target: T4, MST2 (Homo sapiens, UniProt Q13188)
T4 construct: gene STK3
Summary of the method: as §1

PAK3 = PAK3 (Homo sapiens, UniProt O75914)
Summary of the method: as §1

PRKD1 = PRKD1 (Homo sapiens, UniProt Q15139)
Summary of the method: as §1

SIK = target: T5, SIK (Homo sapiens, UniProt P57059)
T5 construct: gene SIK1
Summary of the method: as §1

STK39 = STK39 (Homo sapiens, UniProt Q9UEW8)
Summary of the method: as §1

TAOK1 = TAOK1 (Homo sapiens, UniProt Q7L7X3)
Summary of the method: as §1

TNK1 = TNK1 (Homo sapiens, UniProt Q13470)
Summary of the method: as §1

For CNS(=O)(=O)c1ccc(N(C)C)c(Nc2ncnc3cc(OC)c(OC)cc23)c1 [compound 7, 3-((6,7-dimethoxyquinazolin-4-yl)amino)-4-(dimethylamino)-N-methylbenzenesulfonamide], the inhibition at 1 µM (CDC2L1) was 0%, the inhibition at 1 µM (CDKL2) was 0% and the inhibition at 1 µM (CDKL3) was 0%. The inhibition at 1 µM (CLK2) was 7%, the inhibition at 1 µM (CSNK1G3) was 11% and the inhibition at 1 µM (EPHA1) was 0%. It also gave an inhibition at 1 µM (EPHB4) of 0%, an inhibition at 1 µM (ERBB4) of 0% and an inhibition at 1 µM (FLT3(ITD)) of 0%. It also gave an inhibition at 1 µM (GCN2(Kin.Dom.2,S808G)) of 7%, an inhibition at 1 µM (GSK3B) of 0% and an inhibition at 1 µM (KIT(V559D)) of 28%. The inhibition at 1 µM (LRRK2) was 9%, the inhibition at 1 µM (MAP3K4) was 0% and the inhibition at 1 µM (MAP4K4) was 0%. The inhibition at 1 µM (MAST1) was 10%, the inhibition at 1 µM (MLK1) was 10% and the inhibition at 1 µM (MST2) was 0%. It also gave an inhibition at 1 µM (PAK3) of 54%, an inhibition at 1 µM (PRKD1) of 20% and an inhibition at 1 µM (SIK) of 17%. It also gave an inhibition at 1 µM (STK39) of 8%, an inhibition at 1 µM (TAOK1) of 25% and an inhibition at 1 µM (TNK1) of 37%.
